Here are results for two molecules from patent US20140200265A1, “USAGE OF 1,3,5,7-TETRAHYDROXY-8-ISOPRENYLXANTHONE FOR TREATING INFLAMMATION” (Hong Kong Baptist University, priority 2013, published 2014).

≈ marks a conversion by molar mass, not a printed value. Like-named read-outs stand apart in the source and are kept apart here.

Assay [1] deals with NO production in LPS and IFN-γ stimulated RAW264.7 cells. Briefly: Assay for NO accumulation in stimulated macrophages (Griess reaction). In kind it is cell-based. As to conditions: Mus musculus, 24 hours; for IC50: 10 U/ml IFN-γ and 100 ng/ml LPS. As to the method: RAW264.7 were maintained in RPMI 1640 medium supplemented with 10% FBS at 37° C. in a humidified 5% CO2 atmosphere. Cells were plated in a 96-well plate (5×10^3 cells/well) and allowed to attach overnight. The cells were then stimulated with 10 U/ml of IFN-γ and 100 ng/ml of LPS for 24 hours in the presence or absence of tested compound with final concentration of 50, 25, 12.5, 6.25, 3.125 μg/mL, and Indometacin as positive drug.
iNOS function was analyzed with Griess reaction and was applied for measurement of nitrite concentration in the culture supernatant. Briefly, 100 μl/well of sample was incubated with equal volume of Griess solution at room temperature for 10 min. The absorbance was evaluated at 540 nm using a calibration curve with a sodium nitrite standard. Percent inhibition was expressed as [1-(NO level of sample/NO level of vehicle treated-control)]×100 (Table 1).

Assay [2] relates to miR-155 expression in stimulated RAW264.7 cells. Nature of the assay: Assay for microRNA155 expression in stimulated macrophages (qRT-PCR). The assay is classed as cell-based. As to conditions: RAW264.7 cells, 1, 2, 4 μg/mL, 24 hours, FIG. 2. As to the method:
RAW264.7 cells were pretreated with tested sample (1,2,4 μg/mL,) for 1 hour and then stimulated for 24 hours. The cells were harvested. Total RNA was extracted and RNA concentrations were determined. Quantitative RT-PCR analyses on miRNAs were performed using TaqMan miR NA assays (Applied Biosystems, USA). 50 ng of RNA per reaction was subjected for RT reaction. RT reaction was carried out using the following conditions: 16° C. for 30 minutes, 42° C. for 30 minutes, and 85° C. for 5 minutes. Expression levels of the miRNAs were determined by qRT-PCR using TaqMan Expression Assays (Applied Biosystems, USA). RNU6 endogenous control was used for normalization, and expression levels were presented as ΔCt with standard deviation (FIG. 2).
As miR-155 plays an important role in the innate immune response or inflammation, the effect of 1,3,5,7-tetrahydroxy-8-isoprenylxanthone on the expression of miR-155 by qRT-PCR was evaluated. In FIG. 2, the cells were stimulated with 100 ng/ml of LPS and 10 U/ml of IFN-γ only or LPS plus different concentrations (1,2,4 μg/mL) of sample for 24 hours. Total RNA was isolated and the expression of miRNA-155 was determined by qRT-PCR. […] RNU6B was used here as an endogenous control. The data represent the mean±SD of triplicate experiments. **p<0.01 compared with the LPS plus IFN-γ.
Background: Quantitative PCR measures a nucleic acid by following its amplification.

Assay [3] relates to Candida albicans secreted aspartic proteases (SAP). As to conditions: Planta Med. 2002; 68(1):49-54; cited from earlier work.

Turning to `CC(C)=CCc1c(O)cc(O)c2oc3cc(O)cc(O)c3c(=O)c12` [1,3,5,7-tetrahydroxy-8-isoprenylxanthone], the IC50 in assay [1] (read-out: The inhibitory effect on NO accumulation, IC50) turned out to be 5.06 µM; in assay [1] (read-out: The inhibitory effect on NO accumulation, IC50(μg/mL)), 1.66 µg/mL. In addition, the “Effect on LPS plus IFN-γ-induced miR-155 expression” value in assay [2] is given as “reduced LPS plus IFN-γ-induced miR-155 expression in a dose-dependent manner”. In assay [3], the “IC50 against Candida albicans secreted aspartic proteases (SAP)” value is 25 µg/mL (≈ 76.1 µM).

What is called inhibition is the drop in the measured response relative to a control, in per cent. `COc1ccc2c(c1)c(CC(=O)O)c(C)n2C(=O)c1ccc(Cl)cc1` [Indometacin, reference compound]: the inhibition at 1 µg/mL in assay [1] (1 μg/mL, IFN-γ and LPS, read-out: The inhibitory effect on NO accumulation (percent inhibition)) stood at 46.5%.
